The values below come from patent US10329243B2, “Biphenyl derivative and uses thereof” (XI'AN LIBANG PHARMACEUTICAL CO., LTD, priority 2015, dated 2019).

SMILES strings stand for the structures.

Format in all cases: in vivo, SD rats
In assay [1] the test system is TNF-α. Kind of assay: Determination of TNF-α in brain tissue homogenate, permanent cerebral ischemia model. The settings on record: permanent cerebral ischemia model rats; 40 mg/kg intravenously; 10% brain tissue homogenate, 24 h after the embolism. How it is done:
(§1) Rats were intraperitoneally injected with 10% chloral hydrate 350 mg/kg after anesthesia and opened up at the center of the neck in accordance with the Zea Longa modified method. The right common carotid artery was separated, and the right external carotid artery branches was ligated. A small opening was made at the distal end of the external carotid artery, and a previously prepared thread was inserted through the common carotid artery and the external carotid artery bifurcation into the internal carotid artery, till the anterior end of the middle cerebral artery, with an immersed depth of 18 to 19 mm. The thread was then secured, and the wound was sutured layer by layer. After the operation, the rats were placed in a clean incubator to wake up. […] The sham operation group, the permanent cerebral ischemia model group, and the Example groups were prepared strictly according to the requirements of the cerebral ischemic reperfusion model, while in the sham operation group the thread was put only into the external carotid artery. The animals were allowed to eat and drink freely after waking up. The sham operation group, the permanent cerebral ischemia model group, and the Example groups were administered intravenously the aqueous solution of the biphenyl derivatives in PEG400 at 40 mg/kg (40 mg/kg means that 40 mg of the test compound per kg of the body weight of rats) 30 min before insertion of thread and 12 h after embolism, respectively. The sham operation group and the permanent cerebral ischemia model group were injected with the same amount of blank PEG400 aqueous solution at the same time point.
(§2) 24 hours after the embolism, 8 rats in each group were sacrificed by decapitation, the brain was removed, rinsed with PBS (pH 7.4) at −20°i for 20 min, evenly sliced (with a thickness of 2 mm), stained in a 2% TTC solution at 37°% in the dark for 30 min, fixed in 10% formalin for 24 h, and photographs were taken to analyze the infarct volume. A mixture of femoral arterial and venous blood was drawn from another 8 rats in each group under anesthesia, placed in a low temperature centrifuge at 4° C., centrifuged at 3500 r/min for 20 min, and the supernatant was stored in a refrigerator at −20° C. ready for SOD and MDA detection. After the blood was drawn, a perfusion needle was insert through the apex to the ascending aorta, and saline at 4° C. was rapid infused until the effluent became clear, followed by 4% paraformaldehyde phosphate buffer perfusion for fixation; the brain was removed by craniotomy, and brain tissues 2 mm in front of and behind the optic chiasma were taken and fixed, dehydrated, rendered transparent, impregnated in wax, and embedded. Brain continuous coronary tissue pathological sections were consecutively cut for later use. The remaining 8 rats in each group were sacrificed, brains were removed, the ischemic brain hemispheres were immediately taken on an ice tray, and 10% brain tissue homogenate was prepared for the detection of IL-1β and TNF-α.
(§3) Brain tissue homogenate was hypothermally centrifuged at 3000 rpm for 15 min, the supernatant was taken, and IL-1β and TNF-α were determined in strict accordance with instructions of the kits.

For assay [2], the system named is SOD. Kind of assay: SOD determination, permanent cerebral ischemia model. The settings on record: permanent cerebral ischemia model rats; 40 mg/kg intravenously; serum, 24 h after the embolism. Here is the method: as §1, §2
(§4) SOD and MDA were determined strictly in accordance with instructions of the kit.

Assay [3] relates to TNF-α. The assay is described as follows: Determination of TNF-α in brain tissue homogenate, cerebral ischemic reperfusion MCAO model. The note with it: ischemic reperfusion MCAO rats; 40 mg/kg intravenously; 10% brain tissue homogenate, 24 h after reperfusion. How it is done:
as §1, with “group, the ischemic reperfusion group, and” for “group, the permanent cerebral ischemia model group, and”, “waking up. After 2 h, the thread was pulled out to achieve reperfusion. The sham” for “waking up. The sham”, “min before reperfusion and 12” for “min before insertion of thread and 12”, “h after reperfusion, respectively. The” for “h after embolism, respectively. The”, “and the ischemic reperfusion group were” for “and the permanent cerebral ischemia model group were”
as §2, with “reperfusion,” for “the embolism,”, “−20° i” for “−20°i”
as §3

Assay [4] deals with SOD. The assay is described as follows: SOD determination, cerebral ischemic reperfusion MCAO model. The note with it: ischemic reperfusion MCAO rats; 40 mg/kg intravenously 30 min before and 12 h after reperfusion; serum, 24 h after reperfusion. How it is done:
as §1, with “group, the ischemic reperfusion group, and” for “group, the permanent cerebral ischemia model group, and”, “waking up. After 2 h, the thread was pulled out to achieve reperfusion. The sham” for “waking up. The sham”, “min before reperfusion and 12” for “min before insertion of thread and 12”, “h after reperfusion, respectively. The” for “h after embolism, respectively. The”, “and the ischemic reperfusion group were” for “and the permanent cerebral ischemia model group were”
as §2, with “reperfusion,” for “the embolism,”, “−20° i” for “−20°i”
as §4

For assay [5], the system named is IL-1β. Kind of assay: Determination of IL-1β in brain tissue homogenate, permanent cerebral ischemia model. The settings on record: permanent cerebral ischemia model rats; 40 mg/kg intravenously; 10% brain tissue homogenate, 24 h after the embolism. Here is the method: as §1, §2, §3
Assay [6] has as its system rats with cerebral ischemic reperfusion injury. The assay is described as follows: Relative infarct volume (TTC, imageJ), cerebral ischemic reperfusion MCAO model. The settings on record: ischemic reperfusion MCAO rats; 40 mg/kg intravenously 30 min before and 12 h after reperfusion; 24 h after reperfusion. Here is the method:
as §1, with “group, the ischemic reperfusion group, and” for “group, the permanent cerebral ischemia model group, and”, “waking up. After 2 h, the thread was pulled out to achieve reperfusion. The sham” for “waking up. The sham”, “min before reperfusion and 12” for “min before insertion of thread and 12”, “h after reperfusion, respectively. The” for “h after embolism, respectively. The”, “and the ischemic reperfusion group were” for “and the permanent cerebral ischemia model group were”
as §2, with “reperfusion,” for “the embolism,”, “−20° i” for “−20°i”
The infarct area in each brain section was analyzed and quantified by the imageJ image software, and the ratio of cerebral infarction volume in the overall brain volume was calculated.

Assay [7] relates to IL-1β. The assay is described as follows: Determination of IL-1β in brain tissue homogenate, cerebral ischemic reperfusion MCAO model. The note with it: ischemic reperfusion MCAO rats; 40 mg/kg intravenously; 10% brain tissue homogenate, 24 h after reperfusion. Here is the method:
as §1, with “group, the ischemic reperfusion group, and” for “group, the permanent cerebral ischemia model group, and”, “waking up. After 2 h, the thread was pulled out to achieve reperfusion. The sham” for “waking up. The sham”, “min before reperfusion and 12” for “min before insertion of thread and 12”, “h after reperfusion, respectively. The” for “h after embolism, respectively. The”, “and the ischemic reperfusion group were” for “and the permanent cerebral ischemia model group were”
as §2, with “reperfusion,” for “the embolism,”, “−20° i” for “−20°i”
as §3

Consider `CC(C)c1cc(-c2cc(C(C)C)c(OC=O)c(C(C)C)c2)cc(C(C)C)c1O` [Example 10 group], for which the “TNF-α content” value stood at 5.05 ± 0.54 ng/mL with TNF-α [1] and 4.68 ± 0.61 ng/mL in the assay on TNF-α [3]. In addition, the “SOD ACTIVITY (U/mL)” value with SOD [2] is listed as 94.08 ± 2.83 U/mL; with SOD [4] it was 95.16 ± 3.88 U/mL. Further, the “IL-1β content” value in the assay on IL-1β [5] amounted to 0.66 ± 0.06 ng/mL; with IL-1β [7] it was 0.67 ± 0.05 ng/mL. Further, in assay [6], the “Relative Brain infarction volume (%)” value worked out at 23.91 ± 5.44 %.

For `CC(C)c1cc(-c2cc(C(C)C)c(OC(=O)C(N)C(C)C)c(C(C)C)c2)cc(C(C)C)c1O` (stereo not drawn) [Example 11 group, 4′-hydroxy-3,3′,5,5′-tetraisopropylbiphenyl-2-amino-3-methylbutyrate], the “TNF-α content” value with TNF-α [1] amounted to 5.16 ± 0.43 ng/mL; in the assay with TNF-α [3] it was 5.31 ± 0.51 ng/mL. Further, the “SOD ACTIVITY (U/mL)” value stood at 95.76 ± 3.93 U/mL in the assay with SOD [2] and 96.71 ± 4.29 U/mL with SOD [4]. In addition, the “IL-1β content” value with IL-1β [5] is 0.76 ± 0.04 ng/mL; in the assay with IL-1β [7], 0.71 ± 0.07 ng/mL. For the same compound, in assay [6], the “Relative Brain infarction volume (%)” value is on record as 23.59 ± 4.11 %.

Take `CC(=O)OC(C)Oc1c(C(C)C)cc(-c2cc(C(C)C)c(O)c(C(C)C)c2)cc1C(C)C` (stereo not drawn) [Example 12 group, Ethyl 1-(4′-hydroxy-3,3′,5,5′-tetraisopropylbiphenyl-4-oxo)acetate]: the “TNF-α content” value is recorded as 5.38 ± 0.59 ng/mL with TNF-α [1] and 4.95 ± 0.67 ng/mL with TNF-α [3]. Further, the figures for the “SOD ACTIVITY (U/mL)” value in the assay with SOD [2] and in the assay with SOD [4] were 91.25 ± 3.84 U/mL and 92.39 ± 5.27 U/mL, respectively. The “IL-1β content” value was 0.75 ± 0.04 ng/mL in the assay with IL-1β [5] and 0.74 ± 0.06 ng/mL with IL-1β [7]. In addition, the “Relative Brain infarction volume (%)” value in assay [6] stood at 25.54 ± 3.29 %.
